Measured values published in patent publication US20260125374A1, “PI3K-ALPHA INHIBITORS AND METHODS OF MAKING AND USING THE SAME” (Relay Therapeutics, Inc., priority 2021, published 2026).

Key:
[1] = Granulation simulation experiments; assay type: physicochemical
Description: (§1) Ethanol (without pretreatment by molecular sieve) and pure water were added drop wise to about 20 mg of I-1 Form A separately until solid is wetted sufficiently. Manually grind the samples with a mortar and pestle for about 5 min. Samples were dried under ambient condition for 10 min. Form transformation and degree of crystallinity were evaluated by XRPD.
as §1, with “of” for “of I-1”

[2] = Investigation of I-3 Form A in different humidity (VH-XRPD, humidity chamber); assay type: physicochemical; conditions: for form after humidity chamber (XRPD): 1 week
Description: According to the DVS result of I-3 Form A, two hydrate forms (a mono-hydrate, and a bis-hydrate) may exist when relative humidity is above 50% RH. Variable humidity XRPD (VH-XRPD) was investigated attempting to capture the potential hydrate(s).
To further evaluate form conversion of I-3 Form A, this salt was placed in different humidity (30% RH, 40% RH and 50% RH) chambers for 1 week.
I-3 Form A was used as starting material. One RH cycle was applied at 25° C. XRPD analysis was carried out in each specific relative humidity. Cycle: 39% RH (initial)-10% RH (2h)-40% RH (2h)-50% RH (2h)-70% RH (2h). Meanwhile, I-3 Form A was exposed to 30% RH, 40% RH and 50% RH chamber for 1 week. Samples were analyzed by XRPD using air tight container.

N#Cc1c(-c2cc(NC(=O)c3cc(F)cc(C(F)(F)F)c3)c3c(c2)C(=O)N[C@H]3c2cc(F)ccc2Cl)ccc2ncnn12 [Compound I-1, (R)-N-(3-(2-chloro-5-fluorophenyl)-6-(5-cyano-[1,2,4]triazolo[1,5-a]pyridin-6-yl)-1-oxoisoindolin-4-yl)-3-fluoro-5-(trifluoromethyl)benzamide]
form change on granulation simulation (XRPD) ([1]; ethanol and water): no form change | XRPD ([1]; granulation simulation with Ethanol): No form and crystallinity change | XRPD ([1]; granulation simulation with water): No form and crystallinity change

N#Cc1c(-c2cc(NC(=O)c3cc(F)cc(C(F)(F)F)c3)c3c(c2)C(=O)N[C@H]3c2cc(F)ccc2Cl)ccc2ncnn12 [Compound I-3]
form after humidity chamber (XRPD) ([2]; 30% RH): additional peaks belongs to Form B | form after humidity chamber (XRPD) ([2]; 40% RH and 50% RH): converted to I-3 Form B | I-3 Form B pattern in VH-XRPD ([2]; 50% RH, 25° C.): started to show up | form by VH-XRPD ([2]; 70% RH, 25° C.): fully converted to a new form, I-3 Form B | XRPD ([2]; Chamber, 25° C., 30% RH (1 week), air tight container for XRPD): I-3 Form A + 2Theta 17.5° | XRPD ([2]; Chamber, 25° C., 40% RH (1 week), air tight container for XRPD): I-3 Form B | XRPD ([2]; Chamber, 25° C., 50% RH (1 week), air tight container for XRPD): I-3 Form B | XRPD ([2]; VH-XRPD, 25° C., 10% RH (2 h)): I-3 Form A | XRPD ([2]; VH-XRPD, 25° C., 39% RH (initial)): I-3 Form A | XRPD ([2]; VH-XRPD, 25° C., 40% RH (2 h)): I-3 Form A | XRPD ([2]; VH-XRPD, 25° C., 50% RH (2 h)): I-3 Form A + 2Theta 17.3° | XRPD ([2]; VH-XRPD, 25° C., 70% RH (2 h)): I-3 Form B
